Source: patent publication US8466162B2, “5-alkynyl-pyridines” (Boehringer Ingelheim International GmbH, priority 2011, dated 2013)

Key:
U87 cells = test: alamarBlue U87 cell assay (antiproliferative/cytotoxicity); assay type: cell-based; details: U-87MG human glioblastoma cells
Method in brief: (§1)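 EC50 values reflect antiproliferative or cytotoxic effect, taken from fluorometric alamarBlue signal (excitation 530-560 nm, emission 590 nm) corrected for a medium blank. Exposure lasted 5-6 days at concentrations up to 10 μM final.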

BT474 cells = test: alamarBlue BT474 cell assay (antiproliferative/cytotoxicity); assay type: cell-based; details: BT-474 human breast cancer cell line, 5-6 days incubation
Method in brief: as §1

MCF7 cells = test: alamarBlue MCF7 cell assay (antiproliferative/cytotoxicity); assay type: cell-based; details: MCF7 human breast cancer cell line
Method in brief: as §1

MB453 cells = test: alamarBlue MB453 cell assay (antiproliferative/cytotoxicity); assay type: cell-based; details: Homo sapiens; MDA MB 453 breast cancer cell line
Method in brief: as §1

H460 cells = test: alamarBlue H460 cell assay (antiproliferative/cytotoxicity); assay type: cell-based; details: NCI-H460; H460 human lung carcinoma cells
Method in brief: as §1

PI3Kalpha = target: T1, PI3Kalpha (Homo sapiens, UniProt P42336); test: Inhibition of PI3Kalpha-induced PIP-2 phosphorylation (filter-binding assay, 33P-ATP); assay type: biochemical; details: PI3 Kinase alpha (p85alpha/His-p110alpha), 1 μM ATP; read-out: IC50 PI3Kα
T1 construct: His (N); made in house; host or cells: SF9 insect cells (baculovirus co-infection)
T1 sequence (P27986 whole entry): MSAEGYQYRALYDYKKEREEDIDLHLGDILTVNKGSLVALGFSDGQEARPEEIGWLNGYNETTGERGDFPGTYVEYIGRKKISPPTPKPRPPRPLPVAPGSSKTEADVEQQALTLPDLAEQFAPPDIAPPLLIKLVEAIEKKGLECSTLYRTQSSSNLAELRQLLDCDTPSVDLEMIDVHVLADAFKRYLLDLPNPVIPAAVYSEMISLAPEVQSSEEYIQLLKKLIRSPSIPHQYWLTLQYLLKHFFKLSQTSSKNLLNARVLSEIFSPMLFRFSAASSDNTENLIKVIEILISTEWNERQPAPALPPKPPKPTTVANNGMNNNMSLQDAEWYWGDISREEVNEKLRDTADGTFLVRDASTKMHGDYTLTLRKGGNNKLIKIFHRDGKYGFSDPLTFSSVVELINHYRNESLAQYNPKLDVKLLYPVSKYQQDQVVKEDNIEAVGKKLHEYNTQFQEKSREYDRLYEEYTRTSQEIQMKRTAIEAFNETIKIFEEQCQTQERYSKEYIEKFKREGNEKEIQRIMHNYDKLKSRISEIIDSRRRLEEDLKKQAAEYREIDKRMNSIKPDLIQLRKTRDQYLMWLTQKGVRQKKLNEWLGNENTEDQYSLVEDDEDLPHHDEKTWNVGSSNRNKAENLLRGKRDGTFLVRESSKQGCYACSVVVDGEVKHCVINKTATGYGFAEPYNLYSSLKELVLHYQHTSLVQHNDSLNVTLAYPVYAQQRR
T1 sequence (P42336 whole entry): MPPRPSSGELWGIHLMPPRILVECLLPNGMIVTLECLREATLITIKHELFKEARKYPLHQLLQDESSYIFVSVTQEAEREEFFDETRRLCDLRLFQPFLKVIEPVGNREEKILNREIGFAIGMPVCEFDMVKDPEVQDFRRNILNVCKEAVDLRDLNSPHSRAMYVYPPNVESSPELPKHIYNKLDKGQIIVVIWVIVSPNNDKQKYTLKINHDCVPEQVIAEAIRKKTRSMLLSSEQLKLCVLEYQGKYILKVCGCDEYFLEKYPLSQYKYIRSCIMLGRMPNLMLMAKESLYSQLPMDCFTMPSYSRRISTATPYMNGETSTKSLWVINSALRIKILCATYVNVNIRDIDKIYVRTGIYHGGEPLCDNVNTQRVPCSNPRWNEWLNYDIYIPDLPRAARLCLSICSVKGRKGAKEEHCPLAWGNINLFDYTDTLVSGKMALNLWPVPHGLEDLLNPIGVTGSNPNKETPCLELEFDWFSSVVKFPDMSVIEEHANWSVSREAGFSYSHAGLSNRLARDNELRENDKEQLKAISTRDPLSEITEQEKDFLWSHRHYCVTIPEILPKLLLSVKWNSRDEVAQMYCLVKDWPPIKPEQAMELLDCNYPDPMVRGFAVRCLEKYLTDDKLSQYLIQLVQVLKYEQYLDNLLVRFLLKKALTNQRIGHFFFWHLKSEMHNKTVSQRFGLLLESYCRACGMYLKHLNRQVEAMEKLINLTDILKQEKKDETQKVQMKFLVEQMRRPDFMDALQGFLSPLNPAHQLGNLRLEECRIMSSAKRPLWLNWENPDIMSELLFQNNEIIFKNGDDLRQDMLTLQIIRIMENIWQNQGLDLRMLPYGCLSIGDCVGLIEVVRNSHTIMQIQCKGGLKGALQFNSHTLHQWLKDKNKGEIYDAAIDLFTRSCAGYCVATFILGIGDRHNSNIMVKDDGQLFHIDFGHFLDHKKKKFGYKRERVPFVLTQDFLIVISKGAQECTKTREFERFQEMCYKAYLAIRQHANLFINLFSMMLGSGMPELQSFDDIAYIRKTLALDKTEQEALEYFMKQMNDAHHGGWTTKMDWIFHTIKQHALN

Row | SMILES | EC50 (U87 cells) [nM] | EC50 (BT474 cells) [nM] | EC50 (MCF7 cells) [nM] | EC50 (MB453 cells) [nM] | EC50 (H460 cells) [nM] | IC50 (PI3Kalpha) [nM]
1 | CCc1ncnc(-c2ccc(CN)cc2)c1C#Cc1cnc(C)c(NS(C)(=O)=O)c1 [Example 78, N-{5-[4-(4-Aminomethyl-phenyl)-6-ethyl-pyrimidin-5-ylethynyl]-2-methyl-pyridin-3-yl}-methanesulfonamide] | 892 | 524 | 549 | 240 | 2400 | 4
2 | CCc1ncnc(-c2ccnc(C)c2)c1C#Cc1cnc(C)c(NS(=O)(=O)c2cccnc2)c1 [Example 91, Pyridine-3-sulfonic acid {5-[4-ethyl-6-(2-methyl-pyridin-4-yl)-pyrimidin-5-ylethynyl]-2-methyl-pyridin-3-yl}-amide] | 476 | 206 | 137 | 164 | 799 | 0.39
3 | CCc1ncnc(-c2ccnc(C)c2)c1C#Cc1cnc(C)c(NS(=O)(=O)c2ccc(F)cc2F)c1 [Example 10, N-{5-[4-Ethyl-6-(2-methyl-pyridin-4-yl)-pyrimidin-5-ylethynyl]-2-methyl-pyridin-3-yl}-2,4-difluoro-benzenesulfonamide] | 326 | 75 | 29 | 69 | 92 | 0.56
